Measurements reported in US11273193B2, “Synergistic composition as a promoter of autophagy” (GIULIANI S.P.A., priority 2017, dated 2022).
Entries after “also recorded” stand apart in the source; their conditions may differ.

Legend:
Type in all cases: cell-based, human
LC3 = assay: Live fluorescent microscopy of LC3-RFP dots (autophagosome accumulation) in U2OS cells; settings: U2OS cells transduced with LC3-RFP, 6 h; biotin 200 ng/ml, Galeopsis dry extract 100 ng/ml, spermidine 10 μM; FIG. 1
Excerpt: In order to evaluate whether biotin and/or Galeopsis segetum extract may affect autophagy, the inventors monitored the accumulation of autophagosome in cultured U2OS cells by live fluorescent microscopy (Klionsky D J, Abdelmohsen K, Abe A, Abedin M J, Abeliovich H, Acevedo Arozena A, et al. Guidelines for the use and interpretation of assays for monitoring autophagy. Autophagy. 2016; 12(1):1-222). Thus, cells were trasduced with construct containing the autophagy protein, LC3, fused with a Red Fluorescent Protein (RFP). Then, accumulation of fluorescent LC3 dots upon addition of biotin (200 ng/ml) or Galeopsis dry extract (100 ng/ml) was monitored by acquiring images every 30 min for 6 h. Spermidine (10 μM) was adopted as a positive control of an autophagy inducer compound (Pietrocola F, Lachkar S, Enot D, Niso-Santano M, Bravo-San Pedro J, Sica V, et al. Spermidine induces autophagy by inhibiting the acetyltransferase EP300. Cell Death & Differentiation. 2015; 22(3):509-16).
Both biotin and Galeopsis segetum dry extract produced a similar accumulation of LC3-red dots.

SQSTM1/p62 = assay: Live fluorescent microscopy of p62-RFP dots (autophagy-mediated p62 degradation) in U2OS cells; settings: U2OS cells transduced with p62-RFP; FIG. 2
Experimental: U2OS cells were seeded 3000 cells/well in 48-well plates, No. 1.5 Uncoated Coverslip, 6 mm glass diameter, previously coated with gelatin solution, and transduced with 0.2 ul di baculovirus/10 000 cells containing a chimeric protein p62-Red Fluorescent Protein (p62-RFP). At 48 h post-transduction the cells were treated with Spermidine, Biotin, Galeopsis, or vehicle and monitored for 24 h using NIKON Live Cell Imaging microscopy.
Because LC3-RFP dots may also accumulate upon a blockade of the autophagic flux, the autophagy-dependent degradation of the SQSTM1/p62 protein (Klionsky D J, Abdelmohsen K, Abe A, Abedin M J, Abeliovich H, Acevedo Arozena A, et al. Guidelines for the use and interpretation of assays for monitoring autophagy. Autophagy. 2016; 12(1):1-222) was thus monitored. p62 served as a link between LC3 and ubiquitinated substrates (Pankiv S, Clausen T H, Lamark T, Brech A, Bruun J-A, Outzen H, et al. p62/SQSTM1 binds directly to Atg8/LC3 to facilitate degradation of ubiquitinated protein aggregates by autophagy. Journal of Biological Chemistry. […]
Accordingly, the effects of biotin and Galeopsis on autophagy-mediated p62 degradation was evaluated analyzing the number of p62-RFP autophagosomes by live fluorescent microscopy. […] Then, p62 fluorescent dots were monitored upon addition of biotin, Galeopsis, spermidine or vehicle.

p62/SQSTM1 = assay: Immunoblot analysis of p62 protein levels in U2OS cells; settings: immunoblot normalized to GAPDH, spermidine 0.5 μM, biotin 19.91 ng/ml, Galeopsis 7.9 ng/ml
Experimental: U2OS cells were grown to 80% confluence in Dulbecco Modified Eagle's Medium High Glucose (4.5 g/ID-Glucose) containing 4 mM L-glutamine, 10% fetal bovine serum (FBS) and treated with Spermidine (Lot. 2010112716), Galeopsis segetum (IDN 6781), Biotin (Lot. 2014124160) or their combinations. Protein samples were extracted in RIPA buffer as previously reported (De Mei C, Ercolani L, Parodi C, Veronesi M, Vecchio C L, Bottegoni G, et al. Dual inhibition of REV-ERBβ and autophagy as a novel pharmacological approach to induce cytotoxicity in cancer cells. Oncogene. 2015; 34(20):2597-608). p62/SQSTM1 and GAPDH levels were analyzed with anti-p62/SQSTM1 and anti-GADPH specific antibodies. Immunoblot experiments were performed in TBS-T buffer containing 5% bovine serum albumin (BSA). […] and anti-GAPDH antibodies were diluted 1:1000 and 1:50000, respectively. Complementary HPR-conjugated secondary antibodies were diluted 1:10000. Upon reaction with ECL Western blotting detection reagent, chemiluminescent signals were acquired with a LAS-4000 luminescent image analyzer and optical density of specific band signal was calculated with Photoshop image analysis software. GAPDH was adopted as a loading control and GAPDH signals were used to normalize p62 protein levels among different samples.
Immunoblots were repeated at least 4 times in order to express value as mean±SEM. […]

lipidated LC3 (LC3-II) = assay: Immunoblot of lipidated LC3 (LC3-II) in U2OS cells, Example 14; settings: 100 μM, 6 h, normalized by ACTIN, FIG. 3
Experimental: (§1) The levels of lipidated LC3 and SQSTM1 in human U2OS cells treated with equimolar doses of N1-methylspermidine and spermidine were evaluated. […] Specifically cultured human U2OS cells were treated 6 h with vehicle or equimolar doses of spermidine and N^1-methylspermidine (100 μM). The levels of lipidated LC3 (LC3-II) and SQSTM1 were then assessed by immunoblotting analysis as in example 8 with specific antibody. Actin signals were adopted as a loading control. Densitometry analysis of protein signals is reported as relative protein levels normalized by ACTIN. Vehicle sample value was set to 1. Shown as mean±SEM., n=3. *P<0.05 and **P<0.01, compounds versus vehicle.

SQSTM1 = assay: Immunoblot of SQSTM1 in U2OS cells, Example 14; settings: 100 μM, 6 h, normalized by ACTIN, FIG. 3
Experimental: as §1

| SMILES | accumulation of fluorescent LC3 dots (autophagosomes) (LC3) | reduction of p62-RFP fluorescent dots / signals versus vehicle (SQSTM1/p62) | Percentage of p62 reduction versus vehicle (% ± SEM) (p62/SQSTM1) [%] | levels of the lipidated LC3-II form compared with vehicle (lipidated LC3 (LC3-II)) | autophagy-mediated degradation of SQSTM1 compared with vehicle (SQSTM1) |
| --- | --- | --- | --- | --- | --- |
| O=C(O)CCCC[C@@H]1SC[C@@H]2NC(=O)N[C@@H]21 [Biotin, 5-[(3aS,4S,6aR)-2-oxohexahydro-1H-thieno[3,4-d]imidazole-4-yl]pentanoic acid] | marked accumulation of fluorescent LC3 dots | drastic reduction of p62-RFP dots; also recorded: strong reduction of p62 fluorescent signals | 21 ± 1.5 |  |  |
| CNCCCNCCCCN [N1-methylspermidine] |  |  |  | increased the levels of the lipidated LC3-II form | stimulated autophagy-mediated degradation of SQSTM1 |
| NCCCCNCCCN [Spermidine, N′-(3-aminopropyl)butane-1,4-diamine] | marked accumulation of LC3 fluorescent dots | markedly reduced p62 fluorescent dots and fluorescent signals | 5 ± 0.11 | increased the levels of the lipidated LC3-II form | stimulated autophagy-mediated degradation of SQSTM1 |
